# Test results from US9714275B2, “Cancer antigen” (Cadila Pharmaceuticals Ltd., priority 2011, dated 2017).
# Tests used:
# Assay type in all cases: cell-based
# [1] = test system: Mia-Pa-Ca-2 cells; assay: Protein profile (SDS-PAGE) of treated pancreatic cancer cells; conditions: Mw 1:500, cisplatin 5 μg/ml, paclitaxel 150 μg/ml, gemcitabine 800 nm; serum free media, 37° C.; vs untreated cell profile
# Protocol: (§1) The Mia-Pa-Ca-2 cells were treated with Mw Cells in ratio 1:500, cisplatin at 5 μg/ml, paclitaxel at 150 μg/ml, and gemcitabine at 800 nm. The treatment was carried out in serum free media at 37° C. The cells were lysed and SDS-PAGE was run to obtain proteomic profile. Thus obtained profiles were overlapped with the untreated cell protein profile. The protein profile was noticed for each treatment. The differently expressed protein was identified at 45 KDa.
# 45 KDa protein is commonly over expressed protein when pancreatic cancer cells are treated with Mw, cisplatin, paclitaxel, gemcitabine, or combination there of.
# [2] = test system: B16 melanoma cells; assay: Protein profile (SDS-PAGE) of treated melanoma cells; conditions: cisplatin 5 μg/ml, paclitaxel 150 μg/ml, gemcitabine 800 nm; serum free media, 37° C.; vs untreated cell profile
# Protocol: as §1, with “B16 melanoma” for “Mia-Pa-Ca-2”, “with,” for “with Mw Cells in ratio 1:500,”, “μg/ml,and” for “μg/ml, and”, “36” for “45”
# 36 KDa protein is commonly expressed protein when melanoma cells are treated with, cisplatin, paclitaxel, gemcitabine, or combination there of.
# [3] = test system: Lung cancer cell lines (A549 and L132); assay: Protein profile (SDS PAGE and Western blot) of Mw treated lung cancer cell lines; conditions: Mw/cells 1:100, 4 hours at 37° C.; vs untreated cell profile
# Protocol: Different Lung cancer cell lines (A549 and L132) were treated with Mw/cells in the ratio of 1:100. Each treatment group contained 4×10E6 cells. Cells treated with Mw were incubated for 4 hours at 37° C. After treatment, cells were pelleted and supernatant was discarded. Cells were then resuspended in DPBS (400 μl). Cells were then sonicated for 15 minutes with pulse of 10 seconds on and 20 seconds off. The lysate obtained was estimated for the protein content using BCA Protein assay and protein was normalized to load 30 μg protein in each well. This was followed by 12% reducing SDS PAGE and Western blot analysis to obtain protein profile and humoral response. Thus obtained profile was compared with untreated cell protein profile.
Molecule,commonly over expressed protein after treatment (SDS-PAGE band) [1] [KDa],commonly expressed protein after treatment (SDS-PAGE band) [2] [KDa],common protein in both treated cell lines [3] [KDa]
N.N.[Cl][Pt][Cl] [cisplatin],45,36,
Nc1ccn([C@@H]2O[C@H](CO)[C@@H](O)C2(F)F)c(=O)n1 [gemcitabine],45,36,
CC(=O)O[C@H]1C(=O)[C@@]2(C)[C@H]([C@H](OC(=O)c3ccccc3)[C@]3(O)C[C@H](OC(=O)[C@H](O)[C@@H](NC(=O)c4ccccc4)c4ccccc4)C(C)=C1C3(C)C)[C@]1(OC(C)=O)CO[C@@H]1C[C@@H]2O [paclitaxel],45,36,
Mycobacterium w [Mw],45,,43
